The values that follow come from patent US9687479B2, “Multisubstituted aromatic compounds as serine protease inhibitors” (VERSEON CORPORATION, priority 2013, dated 2017).

A word on the IC50: it is the concentration that inhibits the measured activity by half. Read a high IC50 as lower potency.

Some results are limits rather than exact numbers.

Sequence of Human KLKB1 (P03952 391-638 limits assumed): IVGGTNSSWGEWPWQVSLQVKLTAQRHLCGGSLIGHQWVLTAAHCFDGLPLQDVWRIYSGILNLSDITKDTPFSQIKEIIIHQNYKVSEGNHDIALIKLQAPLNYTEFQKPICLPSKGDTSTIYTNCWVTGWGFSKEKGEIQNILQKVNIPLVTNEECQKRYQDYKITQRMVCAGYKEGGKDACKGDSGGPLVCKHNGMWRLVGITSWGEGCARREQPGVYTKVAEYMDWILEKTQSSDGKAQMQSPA
Sequence of Human KLKB1 (P03952 20-390 partner limits assumed): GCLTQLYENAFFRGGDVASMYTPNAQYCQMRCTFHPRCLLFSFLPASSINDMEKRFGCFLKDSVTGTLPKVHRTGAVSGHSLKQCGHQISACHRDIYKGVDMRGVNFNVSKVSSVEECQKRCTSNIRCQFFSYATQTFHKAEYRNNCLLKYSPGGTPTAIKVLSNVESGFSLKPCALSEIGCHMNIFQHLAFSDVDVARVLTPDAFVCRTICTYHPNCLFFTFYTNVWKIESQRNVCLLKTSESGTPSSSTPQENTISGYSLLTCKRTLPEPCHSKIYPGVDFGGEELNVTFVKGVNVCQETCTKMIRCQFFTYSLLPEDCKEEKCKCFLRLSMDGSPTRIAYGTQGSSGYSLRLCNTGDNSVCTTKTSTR

For this experiment, the target named is Human KLKB1 (Homo sapiens (Human), UniProt P03952). In words: KLKB1 kallikrein activity inhibition assay (chromogenic substrate S-2302). Conditions: Table C. Format: biochemical. The protocol:
The KLKB1 kallikrein activity reported herein (e.g., Tables B, C, and D) was obtained as follows. Human KLKB1 protein was obtained from Enzyme Research Labs. […] KLKB1 was assayed in buffer containing 0.05 M Tris (pH 7.4), 0.01 M NaCl and 0.2% w/v PEG-8000. The final concentration of enzyme used was 3 nM KLKB1. […] All assays were performed in 96-well microtiter plates at room temperature (RT). […] Inhibitor IC50 values were determined by adding test compound as ten point, three-fold serial dilutions in buffer solution, as known in the art. The plate was read at 10 minutes after substrate addition. The IC50 was calculated by plotting the percent (%) inhibition against compound concentration and fitting the data to a constrained four parameter sigmoidal curve, as known in the art.
With `O=C(c1ccco1)n1nc(-c2ccccn2)nc1NCc1ccc(F)cc1` [Cmpd 369], the concentration for half-maximal inhibition (IC50) was 1000 to 10000 nM.

In turn, `O=C(c1ccco1)n1nc(-c2cccnc2)nc1NCc1ccc(F)cc1` [Cmpd 370] showed an IC50 of 1000 to 10000 nM.

As to `O=C(c1ccoc1)n1nc(-c2ccccn2)nc1NCc1ccc(F)cc1` [Cmpd 371], the IC50 was 1000 to 10000 nM.

As to `O=C(c1ccoc1)n1nc(-c2cccnc2)nc1NCc1ccc(F)cc1` [Cmpd 372], the IC50 lay within 1000 to 10000 nM.

Take `O=C(c1ccoc1)n1nc(-c2ccncc2)nc1NCc1ccc(F)cc1` [Cmpd 373]: the IC50 was greater than 100000 nM.

Compound `CCCn1nc(-c2ccccn2)nc1NCc1ccc(F)cc1` [Cmpd 374] registered an IC50 greater than 100000 nM.

`O=C(c1ccsc1)n1nc(-c2ccccn2)nc1NCc1ccc(F)cc1` [Cmpd 375] came in with an IC50 of 100 to 1000 nM.

Turning to `O=C(c1cccs1)n1nc(-c2cccnc2)nc1NCc1ccc(F)cc1` [Cmpd 376], the IC50 fell in the range of 1000 to 10000 nM.

For `O=C(c1ccsc1)n1nc(-c2cccnc2)nc1NCc1ccc(F)cc1` [Cmpd 377], the half-inhibitory concentration (IC50) is 100 to 1000 nM.

Consider `O=C(c1cccs1)n1nc(-c2ccncc2)nc1NCc1ccc(F)cc1` [Cmpd 378], for which the IC50 is greater than 100000 nM.

Compound `COc1ccc(CNc2nc(-c3ccccn3)nn2C(=O)c2cccs2)cc1` [Cmpd 379] yielded an IC50 greater than 100000 nM.

The compound `COc1ccc(CNc2nc(-c3ccccn3)nn2C(=O)c2ccsc2)cc1` [Cmpd 380] displayed an IC50 of 1000 to 10000 nM.

`COc1ccc(CNc2nc(-c3cccnc3)nn2C(=O)c2cccs2)cc1` [Cmpd 381] showed an IC50 greater than 100000 nM.

Take `COc1ccc(CNc2nc(-c3cccnc3)nn2C(=O)c2ccsc2)cc1` [Cmpd 382]: the IC50 is 1000 to 10000 nM.

`COc1ccccc1C(=O)n1nc(-c2ccccc2)nc1NCc1ccc(Cl)o1` [Cmpd 383] returned an IC50 greater than 100000 nM.

Compound `COc1ccccc1C(=O)n1nc(C2CCOCC2)nc1NCc1ccc(Cl)s1` [Cmpd 385] came in with an IC50 of 100 to 1000 nM.

In turn, `COc1ccccc1C(=O)n1nc(C2CCCO2)nc1NCc1ccc(Cl)s1` (stereo not drawn) [Cmpd 386] returned an IC50 of 100 to 1000 nM.

`COc1ccccc1C(=O)n1nc(C2CN(S(=O)(=O)N3CCCC3)C2)nc1NCc1ccc(Cl)s1` [Cmpd 388] yielded a half-maximal inhibitory concentration (IC50) of less than 100 nM.

`COc1ccccc1C(=O)n1nc(-c2ccc(N3CCOCC3)cc2)nc1NCc1ccc(Cl)s1` [Cmpd 389] registered an IC50 of 1000 to 10000 nM.

`O=C(c1ccoc1)n1nc(C2CCCO2)nc1NCc1ccc(Cl)s1` (stereo not drawn) [Cmpd 392] displayed an IC50 of 100 to 1000 nM.

`O=C(c1c(F)cccc1F)n1nc(-c2ccccn2)nc1NCc1ccccc1` [Cmpd 394] registered an IC50 greater than 100000 nM.

`O=C(c1ccccc1Cl)n1nc(-c2ccccn2)nc1NCc1ccccc1` [Cmpd 395] displayed an IC50 of 100 to 1000 nM.

As to `O=C(c1ccccc1Cl)n1nc(-c2cccs2)nc1NCc1ccccc1` [Cmpd 396], the IC50 was in the range of 100 to 1000 nM.

The compound `COc1ccccc1C(=O)n1nc(-c2ccccn2)nc1NCc1ccccc1` [Cmpd 397] had a half-inhibitory concentration (IC50) of 1000 to 10000 nM.

On to `COc1ccccc1C(=O)n1nc(-c2cccs2)nc1NCc1ccccc1` [Cmpd 398], for which the IC50 is 1000 to 10000 nM.

Consider `O=C(c1ccc(Cl)cc1)n1nc(-c2ccccn2)nc1NCc1ccccc1` [Cmpd 399], for which the IC50 is 100 to 1000 nM.

Compound `O=C(c1ccco1)n1nc(-c2ccncc2)nc1NCc1ccccc1` [Cmpd 400] came in with an IC50 of 1000 to 10000 nM.

Turning to `O=C(c1ccoc1)n1nc(-c2ccccn2)nc1NCc1ccccc1` [Cmpd 401], the IC50 was greater than 100000 nM.

Compound `O=C(c1ccoc1)n1nc(-c2ccncc2)nc1NCc1ccccc1` [Cmpd 402] came in with an IC50 of 10000 to 100000 nM.

Regarding `COc1ccccc1C(=O)n1nc(-c2ccco2)nc1NCc1ccccc1` [Cmpd 403], the IC50 is 1000 to 10000 nM.

In turn, `O=C(c1cccs1)n1nc(-c2ccccn2)nc1NCc1ccccc1` [Cmpd 404] gave an IC50 of 1000 to 10000 nM.

As to `O=C(c1ccsc1)n1nc(-c2ccccn2)nc1NCc1ccccc1` [Cmpd 405], the IC50 is 10000 to 100000 nM.

Compound `O=C(c1cccs1)n1nc(-c2ccncc2)nc1NCc1ccccc1` [Cmpd 406] came in with a half-maximal inhibitory concentration (IC50) greater than 100000 nM.
